Measured values: patent US8614201B2 (Janssen Pharmaceutica NV, priority 2009, dated 2013)

Each compound was assayed against Human TRPA1 (Homo sapiens, UniProt O75762) (assay: Assay 1: In vitro cellular testing of TRPA1 modulation (CHO-TREx, Fluo-3 calcium fluorescence, AITC agonist)). Details: CHO-TREx cells expressing human TRPA1; Fluo-3 fluorescence (FLIPR/Tetra); agonist 15 μM allyl isothiocyanate (AITC); 30 minute antagonist incubation.
Sequence of Human TRPA1 (O75762 whole entry): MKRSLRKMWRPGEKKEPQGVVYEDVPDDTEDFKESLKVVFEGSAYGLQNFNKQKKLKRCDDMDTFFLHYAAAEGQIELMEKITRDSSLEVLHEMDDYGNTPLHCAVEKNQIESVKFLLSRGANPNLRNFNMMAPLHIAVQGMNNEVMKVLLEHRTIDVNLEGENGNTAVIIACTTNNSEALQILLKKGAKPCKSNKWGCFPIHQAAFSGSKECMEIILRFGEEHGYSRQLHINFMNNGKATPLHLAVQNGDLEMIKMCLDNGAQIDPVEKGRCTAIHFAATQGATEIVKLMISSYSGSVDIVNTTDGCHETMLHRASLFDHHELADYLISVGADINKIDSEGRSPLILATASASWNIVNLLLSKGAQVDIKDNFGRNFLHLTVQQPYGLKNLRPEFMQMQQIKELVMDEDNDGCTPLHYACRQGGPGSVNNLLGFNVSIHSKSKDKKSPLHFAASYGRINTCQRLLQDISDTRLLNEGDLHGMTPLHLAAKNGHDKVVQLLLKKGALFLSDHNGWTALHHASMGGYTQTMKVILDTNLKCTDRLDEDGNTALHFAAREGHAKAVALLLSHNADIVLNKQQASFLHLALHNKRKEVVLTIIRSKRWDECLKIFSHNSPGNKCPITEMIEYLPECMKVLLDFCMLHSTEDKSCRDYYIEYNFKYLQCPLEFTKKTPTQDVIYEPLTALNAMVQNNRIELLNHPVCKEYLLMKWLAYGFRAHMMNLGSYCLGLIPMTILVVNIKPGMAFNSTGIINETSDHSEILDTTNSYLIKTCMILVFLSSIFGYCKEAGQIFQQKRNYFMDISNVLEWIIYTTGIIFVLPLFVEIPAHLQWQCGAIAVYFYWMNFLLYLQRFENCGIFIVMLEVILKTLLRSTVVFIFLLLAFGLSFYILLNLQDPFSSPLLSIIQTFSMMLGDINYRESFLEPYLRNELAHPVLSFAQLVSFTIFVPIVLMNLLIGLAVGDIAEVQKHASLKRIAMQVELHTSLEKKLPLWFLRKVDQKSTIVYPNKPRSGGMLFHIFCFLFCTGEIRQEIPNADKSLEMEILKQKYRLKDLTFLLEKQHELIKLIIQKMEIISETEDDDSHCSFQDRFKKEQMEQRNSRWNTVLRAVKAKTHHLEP
Assay type: cell-based
Design: expressed in transfected cells; host or cells: CHO-TREx cells (Invitrogen), vector pcDNA4/TO
Summary of the method: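 Antagonist potency is the 50% reduction of the AITC (15 μM) calcium response, Hill-fitted against no-antagonist and 10 μM ruthenium red controls. Fluo-3-loaded (4 μM) CHO-TREx cells with tetracycline-inducible human TRPA1 got compound in HEPES saline pH 7.4 for 30 min, usually from 10 μM in three-fold dilutions.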
In the case of `NC(=O)c1ccc(-c2cccc(CNC(=O)[C@@H]3CCCN3S(=O)(=O)c3ccc(F)cc3)c2)cc1` [Example 85, 1-(4-Fluorobenzenesulfonyl)-pyrrolidine-2S-carboxylic acid (4′-carbamoylbiphenyl-3-ylmethyl)-amide], the IC50 is reported as 14.1 µM.
For `N#Cc1ccc(-c2cccc(CNC(=O)[C@@H]3CCCN3S(=O)(=O)c3ccc(F)cc3)c2)cc1` [Example 86, 1-(4-Fluoro-benzenesulfonyl)-pyrrolidine-2S-carboxylic acid (4′-cyano-biphenyl-3-ylmethyl)-amide], the IC50 was 0.085 µM.
For `Cc1ccc(-c2cccc(CNC(=O)[C@@H]3CCCN3S(=O)(=O)c3ccc(F)cc3)c2)cn1` [Example 87, 1-(4-Fluorobenzenesulfonyl)-pyrrolidine-2S-carboxylic acid 3-(6-methylpyridin-3-yl)-benzyl amide], the IC50 was 1.79 µM.
Work on `O=C(NCc1cccc(-c2ccc(C(F)(F)F)nc2)c1)[C@@H]1CCCN1S(=O)(=O)c1ccc(F)cc1` [Example 88, 1-(4-Fluorobenzenesulfonyl)-pyrrolidine-2S-carboxylic acid 3-(6-trifluoromethylpyridin-3-yl)-benzyl amide] yielded an IC50 of 0.017 µM.
`CC(=O)c1ccc(-c2cccc(CNC(=O)[C@@H]3CCCN3S(=O)(=O)c3ccc(F)cc3)c2)cc1` [Example 89, 1-(4-Fluorobenzenesulfonyl)-pyrrolidine-2S-carboxylic acid (4′-acetylbiphenyl-3-ylmethyl)-amide] gave an IC50 of 0.844 µM.
`COc1ccc(-c2cccc(CNC(=O)[C@@H]3CCCN3S(=O)(=O)c3ccc(F)cc3)c2)nc1` [Example 90, 1-(4-Fluorobenzenesulfonyl)-pyrrolidine-2S-carboxylic acid 3-(5-methoxypyridin-2-yl)-benzylamide] gave an IC50 of 8.3 µM.
For `O=C(NCc1cccc(-c2ccc(Cl)cn2)c1)[C@@H]1CCCN1S(=O)(=O)c1ccc(F)cc1` [Example 91, 1-(4-Fluorobenzenesulfonyl)-pyrrolidine-2S-carboxylic acid 3-(5-chloropyridin-2-yl)-benzylamide], the IC50 was 0.175 µM.
For `O=C(NCc1cccc(-c2ccc(C(F)(F)F)cn2)c1)[C@@H]1CCCN1S(=O)(=O)c1ccc(F)cc1` [Example 92, 1-(4-Fluorobenzenesulfonyl)-pyrrolidine-2S-carboxylic acid 3-(5-trifluoromethylpyridin-2-yl)-benzylamide], the IC50 was 0.017 µM.
`CN(C)c1ccc(-c2cccc(CNC(=O)[C@@H]3CCCN3S(=O)(=O)c3ccc(F)cc3)c2)cc1` [Example 93, 1-(4-Fluorobenzenesulfonyl)-pyrrolidine-2S-carboxylic acid (4′-dimethylaminobiphenyl-3-ylmethyl)-amide] showed an IC50 of 0.086 µM.
With `O=C(NCc1cccc(-c2ccc(N3CCOCC3)cc2)c1)[C@@H]1CCCN1S(=O)(=O)c1ccc(F)cc1` [Example 94, 1-(4-Fluorobenzenesulfonyl)-pyrrolidine-2S-carboxylic acid (4′-morpholin-4-yl-biphenyl-3-ylmethyl)-amide] the IC50 was 1.63 µM.
Work on `Cn1ccc2cc(-c3cccc(CNC(=O)[C@@H]4CCCN4S(=O)(=O)c4ccc(F)cc4)c3)ccc21` [Example 96, 1-(4-Fluoro-benzenesulfonyl)-pyrrolidine-2S-carboxylic acid 3-(1-methyl-1H-indol-5-yl)-benzylamide] yielded an IC50 of 0.432 µM.
`O=C(NCc1cccc(-c2ccc(N3CCOCC3)nc2)c1)[C@@H]1CCCN1S(=O)(=O)c1ccc(F)cc1` [Example 97, 1-(4-Fluorobenzenesulfonyl)-pyrrolidine-2S-carboxylic acid 3-(6-morpholin-4-yl-pyridin-3-yl)-benzylamide] gave an IC50 of 1.71 µM.
`O=C(NCc1cccc(-c2ccccc2)c1)[C@@H]1CCCN1S(=O)(=O)c1ccc(F)cc1` [Example 98, 1-(4-Fluorobenzenesulfonyl)-pyrrolidine-2S-carboxylic acid (biphenyl-3-ylmethyl)-amide] gave an IC50 of 0.381 µM.
`O=C(NCc1cccc(-c2ccc3cc[nH]c3c2)c1)[C@@H]1CCCN1S(=O)(=O)c1ccc(F)cc1` [Example 101, 1-(4-Fluorobenzenesulfonyl)-pyrrolidine-2S-carboxylic acid 3-(1H-indol-6-yl)-benzylamide] showed an IC50 of 4.05 µM.
Work on `O=C(NCc1cccc(-c2ccc(CN3CCOCC3)cc2)c1)[C@@H]1CCCN1S(=O)(=O)c1ccc(F)cc1` [Example 102, 1-(4-Fluorobenzenesulfonyl)-pyrrolidine-2S-carboxylic acid (4′-morpholin-4-ylmethylbiphenyl-3-ylmethyl)-amide] yielded an IC50 of 1.7 µM.
For `O=C(NCc1cccc(-c2ccc(N3CCCCC3)cc2)c1)[C@@H]1CCCN1S(=O)(=O)c1ccc(F)cc1` [Example 103, 1-(4-Fluoro-benzenesulfonyl)-pyrrolidine-2S-carboxylic acid (4′-piperidin-1-yl-biphenyl-3-ylmethyl)-amide], the IC50 was 0.252 µM.
With `CN(C)c1ccc(-c2cccc(CNC(=O)[C@@H]3CCCN3S(=O)(=O)c3ccc(F)cc3)c2)cn1` [Example 104, 1-(4-Fluorobenzenesulfonyl)-pyrrolidine-2S-carboxylic acid 3-(6-dimethylaminopyridin-3-yl)-benzylamide] the IC50 was 0.46 µM.
For `O=C(NCc1cccc(-c2cnc3ccccc3c2)c1)[C@@H]1CCCN1S(=O)(=O)c1ccc(F)cc1` [Example 105], the IC50 was 1.03 µM.
`O=C(NCc1cccc(-c2ccc3ncccc3c2)c1)[C@@H]1CCCN1S(=O)(=O)c1ccc(F)cc1` [Example 106, 1-(4-Fluoro-benzenesulfonyl)-pyrrolidine-2S-carboxylic acid 3-quinolin-6-yl-benzylamide] was tested, and the IC50 was 0.594 µM.
For `O=C(NCc1cccc(-c2ccc3ccccc3n2)c1)[C@@H]1CCCN1S(=O)(=O)c1ccc(F)cc1` [Example 107, 1-(4-Fluoro-benzenesulfonyl)-pyrrolidine-2S-carboxylic acid 3-quinolin-2-yl-benzylamide], the IC50 was 0.518 µM.
For `Cn1ccc2ccc(-c3cccc(CNC(=O)[C@@H]4CCCN4S(=O)(=O)c4ccc(F)cc4)c3)cc21` [Example 108, 1-(4-Fluorobenzenesulfonyl)-pyrrolidine-2S-carboxylic acid 3-(1-methyl-1H-indol-6-yl)-benzylamide], the IC50 was 2.53 µM.
`O=C(NCc1cccc(-c2ccc(C(F)(F)F)cc2)c1)[C@@H]1[C@H]2C[C@H]2CN1S(=O)(=O)c1ccc(F)cc1` [Example 109, 3-(4-Fluorobenzenesulfonyl)-3-aza-1S,5R-bicyclo[3.1.0]hexane-2S-carboxylic acid (4′-trifluoromethylbiphenyl-3-ylmethyl)-amide] was tested, and the IC50 was 0.319 µM.
Work on `O=C(NCc1cccc(-c2ccc(C(F)(F)F)cc2)c1)[C@@H]1[C@H]2C[C@H]2CN1S(=O)(=O)c1ccc(Cl)s1` [Example 110, 3-(5-Chlorothiophene-2-sulfonyl)-3-aza-1S,5R-bicyclo[3.1.0]hexane-2S-carboxylic acid (4′-trifluoromethylbiphenyl-3-ylmethyl)-amide] yielded an IC50 of 0.092 µM.
Compound `O=C(NCc1cccc(-c2ccc(C(F)(F)F)cc2)c1)[C@@H]1C=CCN1S(=O)(=O)c1ccc(F)cc1` [Example 111, 1-(4-Fluorobenzenesulfonyl)-2,5-dihydro-1H-pyrrole-2S-carboxylic acid (4′-trifluoromethylbiphenyl-3-ylmethyl)-amide] has an IC50 of 0.014 µM.
Compound `O=C(NCc1cccc(-c2ccc(C(F)(F)F)cc2)c1)[C@@H]1C=CCN1S(=O)(=O)c1ccc(Cl)s1` [Example 112, 1-(5-Chlorothiophene-2-sulfonyl)-2,5-dihydro-1H-pyrrole-2S-carboxylic acid (4′-trifluoromethylbiphenyl-3-ylmethyl)-amide] has an IC50 of 0.011 µM.
`C[C@H](NC(=O)[C@@H]1CCCN1S(=O)(=O)c1ccc(F)cc1)c1cccc(-c2ccc(C(F)(F)F)cc2)c1` [Example 113, (1S,2S)-1-(4-Fluoro-benzenesulfonyl)-pyrrolidine-2-carboxylic acid [1-(4′-trifluoromethyl-biphenyl-3-yl)-ethyl]-amide] showed an IC50 of 0.062 µM.
`C[C@@H](NC(=O)[C@@H]1CCCN1S(=O)(=O)c1ccc(F)cc1)c1cccc(-c2ccc(C(F)(F)F)cc2)c1` [Example 114, (1R,2S)-1-(4-Fluoro-benzenesulfonyl)-pyrrolidine-2-carboxylic acid [1-(4′-trifluoromethyl-biphenyl-3-yl)ethyl]-amide] gave an IC50 of 2.93 µM.
In the case of `C[C@H](NC(=O)[C@@H]1CCCN1S(=O)(=O)c1ccc(Cl)s1)c1cccc(-c2ccc(C(F)(F)F)cc2)c1` [Example 115, (1S,2S)-1-(5-Chloro-thiophene-2-sulfonyl)-pyrrolidine-2-carboxylic acid [1-(4′-trifluoromethylbiphenyl-3-yl)ethyl]-amide], the IC50 is reported as 0.015 µM.
`C[C@@H](NC(=O)[C@@H]1CCCN1S(=O)(=O)c1ccc(Cl)s1)c1cccc(-c2ccc(C(F)(F)F)cc2)c1` [Example 116, (1R,2S)-1-(5-Chloro-thiophene-2-sulfonyl)-pyrrolidine-2-carboxylic acid [1-(4′-trifluoromethylbiphenyl-3-yl)ethyl]-amide] was tested, and the IC50 was 0.386 µM.
`CC(C)(NC(=O)[C@@H]1CCCN1S(=O)(=O)c1ccc(Cl)s1)c1cccc(-c2ccc(C(F)(F)F)cc2)c1` [Example 118, (2S)-1-(5-Chloro-thiophene-2-sulfonyl)-pyrrolidine-2-carboxylic acid [1-methyl-1-(4′-trifluoromethyl-biphenyl-3-yl)ethyl]-amide] showed an IC50 of 5.77 µM.
In the case of `O=C(NCc1cccc(-c2ccc(C(F)(F)F)cc2)c1)[C@@H]1CC(F)(F)CN1S(=O)(=O)c1ccc(F)cc1` [Example 119, (2S)-4,4-Difluoro-1-(4-fluoro-benzenesulfonyl)-pyrrolidine-2-carboxylic acid (4′-trifluoromethyl-biphenyl-3-ylmethyl)-amide], the IC50 is reported as 0.047 µM.
Compound `O=C(NCc1cccc(-c2ccc(C(F)(F)F)cc2)c1)[C@@H]1CC(F)(F)CN1S(=O)(=O)c1ccc(Cl)s1` [Example 120, (2S)-1-(5-Chloro-thiophene-2-sulfonyl)-4,4-difluoro-pyrrolidine-2-carboxylic acid (4′-trifluoromethyl-biphenyl-3-ylmethyl)-amide] has an IC50 of 0.03 µM.
